The text below walks through data of US20050244983A1, “Method for measuring antioxidant status” (The Western Australian Centre for Pathology and Medical …, priority 2002, published 2005).

Assay [1] in a line: AIOR assay (antioxidant inhibition of radical assay): uroporphyrin I fluorescence decay with AAPH, area under curve against Trolox standard curve. The settings on record: for Area Under Curve (mean ± SD): uroporphyrin 1/1000, ratio 1:45:280, n=6; for Antioxidant Status (mM) Trolox Equivalent Calculated 1/16 Dilution: calculated from the observed ¼ dilution value; for Antioxidant Status Trolox Equivalent (mM) of the observed individual ¼ Dilution: individual polyphenol; for Antioxidant Status Trolox Equivalent (mM) of the observed individual ¼ Dilution / Antioxidant status in mM Trolox equivalent, High value / Antioxidant status in mM Trolox equivalent, Low value / Antioxidant status in mM Trolox equivalent, Mean value: n=9; for antioxidant activity of solvent (in words) / Antioxidant status in mM Trolox equivalent, High value / Antioxidant status in mM Trolox equivalent, Low value / Antioxidant status in mM Trolox equivalent, Mean value: solvent compared against blank. Format: biochemical. The protocol: The stock phosphate buffer (0.75 M, pH 7.0) was prepared by mixing 61.1:38.9 (v/v) of a 0.75 M K2HPO4 and a 0.75 M NaH2PO4 solution. The working phosphate buffer 75 mM, pH 7.0 was prepared by a 1:9 (v/v) dilution of the 0.75 M stock phosphate buffer.
AAPH (583 mM) was prepared by dissolving completely 0.474 g of AAPH in 3 mL of 75 mM, pH 7.0 phosphate buffer. This solution was prepared freshly before each run.
Uroporphyrin stock solution (225 μM) was prepared by dissolving 1.2 mg of uroporphyrin I dihydrochloride in 5.9 mL of phosphate buffer (75 mM, pH 7.0). This solution was very stable for many months by storing in the dark at 4° C. A secondary uroporphyrin stock solution for routine use was prepared by a 1:50 (v/v) dilution of the stock uroporphyrin solution with phosphate buffer (75 mM, pH 7.0). This secondary stock solution was stable for several months in the dark at 4° C. A working uroporphyrin solution for daily use was prepared by a 1:750 (v/v) dilution of the secondary uroporphyrin solution with phosphate buffer (75 mM, pH 7.0).
To enable complete solubility of both hydrophobic and hydrophilic compounds in the sample, a surfactant Brij 35™ was added to the working uroporphyrin solution in the quantity of 0.1% of the reagent.
Trolox was used as an antioxidant standard to compare the antioxidant status of various inorganic and organic matter. A stock Trolox standard solution (5.0 mM) was prepared by dissolving Trolox 35 (250 mg) in 200 mL of phosphate buffer (75 mM, pH 7.0). Working standards of Trolox were prepared by diluting the stock Trolox standard to 0.5, 1.0 and 2.0 mM with the same buffer.
Sample/blank/standard (1 μL), and working uroporphyrin solution (0.300 uM) with Brij™ (136 μL) were added to the wells of a 96-well microplate. Blank, standards or diluted samples were added first into the well, followed by working uroporphyrin solution with Brij™. The contents of each well was mixed using a plateshaker for 1-2 minutes. Freshly prepared AAPH solution […] (22 μL) was then added. This procedure provided a sample to AAPH to uroporphyrin ratio of (1:22:136). The contents of the wells were then mixed again for exactly 2 minutes before acquisition of data with the Varian Cary Eclipse fluorescence spectrophotometer. A sample to reagent ratio of (2:30:186) was also used to further improve the precision of the assay.
The Varian Cary Eclipse fluorescence spectrophotometer settings were as follows. • Excitation λ=397 nm; Emission λ=615 nm. • Excitation Slit=20 nm; Emission Slit=10 nm. • Ave Time=0.2 sec. • Run Time=180 minutes. • Y (min-max)=0-1000. • Excitation Filter: Auto. • Emission Filter: Open. • PMT: Variable (Choice of low, medium or high).
The method takes the free radical action to completion in 180 minutes. The Varian Cary Eclipse fluorescence spectrophotometer has the ability to achieve high throughput of 96 samples in 180 minutes with the 96-wellplate format. […] This invention provides both a method and reagent, which can accurately, easily, economically, and quickly analyze antioxidant status.
The results of the analysis were normalized by Varian Cary Eclipse software and calculated by GraphPad Prism 4.0 software (GraphPad Software, Inc., San Diego Calif., 2003).

Experiment in assay [2]: as above
Format: biochemical. The note with it: for Area Under Curve (mean ± SD): uroporphyrin 1/1000, ratio 1:45:280, n=6.

Where “and” joins values, the source holds several entries; their conditions need not be identical. Equal values may be shown once.

With `Cc1c(C)c2c(c(C)c1O)CCC(C)(C(=O)O)O2` (racemic) [Trolox, (±)6-hydroxy-2,5,7,8-tetramethylchromane-2-carboxylic acid], the “Area Under Curve (mean ± SD)” value came out at 35554 ± 2267 in assay [1] (STD 1.0 mM, AAPH 640 mM); 77238 ± 3701 in assay [1] (STD 4.0 mM, AAPH 583 mM); 40829 ± 4000 in assay [2] (STD 1.0 mM, AAPH 583 mM); 55416 ± 3207 in assay [2] (STD 2.0 mM, AAPH 583 mM); 44522 ± 2348 in assay [2] (STD 2.0 mM, AAPH 640 mM); 69220 ± 6603 in assay [2] (STD 4.0 mM, AAPH 640 mM). Further, the “Mean Area Under Curve” value in assay [1] (Trolox 0.5 mM, 20 μL Brij 35 per 15 mL working uroporphyrin solution, n=24) turned out to be 45482; in assay [1] (Trolox 0.5 mM, 100 μL Brij 35 per 15 mL working uroporphyrin solution, n=24) it was 52714; in assay [1] (Trolox 0.5 mM, intra-assay precision, n=16), 47456; in assay [1] (Trolox 1.0 mM, 20 μL Brij 35 per 15 mL working uroporphyrin solution, n=24), 57154; in assay [1] (Trolox 1.0 mM, 100 μL Brij 35 per 15 mL working uroporphyrin solution, n=24) it was 61482; in assay [1] (Trolox 1.0 mM, intra-assay precision, n=16), 57535. Besides, the “Mean Area Under Curve” value is on record as 72596 in assay [1] (Trolox 2.0 mM, 20 μL Brij 35 per 15 mL working uroporphyrin solution, n=24); 76499 in assay [1] (Trolox 2.0 mM, intra-assay precision, n=16); 71394 in assay [2] (Trolox 2.0 mM, 100 μL Brij 35 per 15 mL working uroporphyrin solution, n=24).
As to `Oc1cc(O)c2c(c1)O[C@H](c1ccc(O)c(O)c1)[C@H](O)C2` [(−) Epicatechin, (−) epicatechin], in assay [1], the “Antioxidant Status (mM) Trolox Equivalent Calculated 1/16 Dilution” value was 1.00 mM and the “Antioxidant Status Trolox Equivalent (mM) of the observed individual ¼ Dilution” value is 4.03 ± 0.28 mM. Moreover, in assay [1] (polyphenol 0.25 mM in ethanol), the “Antioxidant Status Trolox Equivalent (mM ± SD)” value is 1.62 ± 0.13 mM. Besides, the “Antioxidant Status Trolox Equivalent (mM ± SD)” value in assay [1] (polyphenol 0.5 mM in ethanol) is given as 3.69 ± 0.23 mM.
`CC(C)=O` [Acetone]: in assay [1], the “antioxidant activity of solvent (in words)” value (“antioxidant activity” for short) is “no antioxidant activity”; the “Antioxidant status in mM Trolox equivalent, High value” (“Antioxidant status … High value” for short) is reported as 0.2 mM; the “Antioxidant status in mM Trolox equivalent, Low value” (from here on “Antioxidant status … Low value”) was determined as 0.0 mM; the “Antioxidant status in mM Trolox equivalent, Mean value” (“Antioxidant status … Mean value” for short) was determined as 0.08 mM.
Turning to `C[S+](C)[O-]` [DMSO, Dimethyl sulphoxide], in assay [1], the “Antioxidant status … High value” is recorded as 1.2 mM; the “Antioxidant status … Low value” was 0.6 mM; the “Antioxidant status … Mean value” turned out to be 0.86 mM.
Regarding `CCO` [Ethanol], in assay [1], the “antioxidant activity” value was “no antioxidant activity”; the “Antioxidant status … High value” was found to be 0.1 mM; the “Antioxidant status … Low value” amounted to 0.0 mM; the “Antioxidant status … Mean value” was found to be 0.08 mM.
Consider `O=C(O)c1cc(O)c(O)c(O)c1` [Gallic acid], for which the “Antioxidant Status (mM) Trolox Equivalent Calculated 1/16 Dilution” value in assay [1] is 0.45 mM. The “Antioxidant Status Trolox Equivalent (mM) of the observed individual ¼ Dilution” value in assay [1] came out at 1.75 ± 0.11 mM. Further, the “Antioxidant Status Trolox Equivalent (mM ± SD)” value in assay [1] (polyphenol 0.25 mM in ethanol) came to 0.46 ± 0.07 mM; in assay [1] (polyphenol 0.5 mM in ethanol), 1.22 ± 0.17 mM.
For `CC(C)O` [Isopropanol], in assay [1], the “antioxidant activity” value is listed as “no antioxidant activity”; the “Antioxidant status … High value” worked out at 0.1 mM; the “Antioxidant status … Low value” stood at 0.0 mM; the “Antioxidant status … Mean value” was 0.04 mM.
As for `O=c1c(O)c(-c2ccc(O)c(O)c2)oc2cc(O)cc(O)c12` [Quercetin], in assay [1], the “Antioxidant Status (mM) Trolox Equivalent Calculated 1/16 Dilution” value is 1.10 mM and the “Antioxidant Status Trolox Equivalent (mM) of the observed individual ¼ Dilution” value was determined as 4.41 ± 0.44 mM. Further, the “Antioxidant Status Trolox Equivalent (mM ± SD)” value in assay [1] (polyphenol 0.25 mM in ethanol) was determined as 1.82 ± 0.13 mM. Moreover, the “Antioxidant Status Trolox Equivalent (mM ± SD)” value in assay [1] (polyphenol 0.5 mM in ethanol) is recorded as 4.58 ± 0.24 mM.
For `O=c1[nH]c(=O)c2[nH]c(=O)[nH]c2[nH]1` [Uric Acid, Uric acid], the “Antioxidant Status in Trolox Equivalent (mM ± SD)” value came out at 0.6 ± 0.1 mM in assay [1] (uric acid 424 μM in phosphate buffer, n=12); 0.6 mM in assay [1] (uric acid 424 μM in phosphate buffer, n=12, listed as uric acid); 1.2 ± 0.1 mM in assay [1] (uric acid 848 μM in phosphate buffer, n=12); 1.2 mM in assay [1] (uric acid 848 μM in phosphate buffer, n=12, listed as uric acid); 2.4 ± 0.1 mM in assay [1] (uric acid 1696 μM in phosphate buffer, n=12); 2.4 mM in assay [1] (uric acid 1696 μM in phosphate buffer, n=12, listed as uric acid). Besides, the “estimation of mean antioxidant status, Trolox equivalent” value in assay [1] (uric acid at physiological upper range for female, 340 μmol/L) is 0.48 mM; in assay [1] (uric acid at physiological upper range for male, 420 μmol/L), 0.59 mM.
Turning to `O=C1O[C@H]([C@@H](O)CO)C(O)=C1O` [Vitamin C], the “Antioxidant Status in Trolox Equivalent (mM ± SD)” value in assay [1] (vitamin C 2.65 mM in deionized water, n=12) is recorded as 0.9 ± 0.1 mM; in assay [1] (vitamin C 2.65 mM in deionized water, n=12, listed as vitamin C), 0.9 mM; in assay [1] (vitamin C 5.30 mM in deionized water, n=12), 1.8 ± 0.1 mM; in assay [1] (vitamin C 5.30 mM in deionized water, n=12, listed as vitamin C) it was 1.8 mM; in assay [1] (vitamin C 10.6 mM in deionized water, outside standard curve range, n=12), 4.0 ± 0.2 mM; in assay [1] (vitamin C 10.6 mM in deionized water, outside standard curve range, n=12, listed as vitamin C) it was 4.0 mM.
`Cn1c(=O)c2c(ncn2C)n(C)c1=O` [caffeine]: the “mean antioxidant status in Trolox equivalent” value in assay [1] (caffeine 9.6 mmol/L in phosphate buffer) amounted to 0.2 mM.
As to (±) catechin, the “Antioxidant Status Trolox Equivalent (mM ± SD)” value in assay [1] (polyphenol 0.25 mM in ethanol) was 1.60 ± 0.07 mM; in assay [1] (polyphenol 0.5 mM in ethanol), 3.47 ± 0.19 mM.
For Albumin, the “Antioxidant Capacity in Trolox Equivalent (mM ± SD)” value in assay [1] (albumin 20 g/L in phosphate buffer, n=12) was 1.2 mM and 1.2 ± 0.1 mM; in assay [1] (albumin 40 g/L in phosphate buffer, n=12) it was 2.4 mM and 2.4 ± 0.1 mM.
For the compound Vitamin A, the “Antioxidant Status in Trolox Equivalent (mM ± SD)” value in assay [1] (vitamin A 1940 μM in isopropanol, n=10) was determined as 0.6 ± 0.1 mM; in assay [1] (vitamin A 1940 μM in isopropanol, n=10, listed as vitamin A) it was 0.56 mM; in assay [1] (vitamin A 3880 μM in isopropanol, n=10), 1.1 ± 0.1 mM; in assay [1] (vitamin A 3880 μM in isopropanol, n=10, listed as vitamin A), 1.11 mM; in assay [1] (vitamin A 5820 μM in isopropanol, n=10), 1.4 ± 0.1 mM; in assay [1] (vitamin A 5820 μM in isopropanol, n=10, listed as vitamin A) it was 1.41 mM.
Consider Vitamin E, for which the “Antioxidant Status in Trolox Equivalent (mM ± SD)” value in assay [1] (vitamin E 952 μM in isopropanol, n=10) amounted to 0.4 ± 0.1 mM; in assay [1] (vitamin E 952 μM in isopropanol, n=10, listed as vitamin E), 0.4 mM; in assay [1] (vitamin E 1905 μM in isopropanol, n=10), 1.1 ± 0.1 mM; in assay [1] (vitamin E 1905 μM in isopropanol, n=10, listed as vitamin E) it was 1.1 mM; in assay [1] (vitamin E 3810 μM in isopropanol, n=10), 2.7 ± 0.1 mM; in assay [1] (vitamin E 3810 μM in isopropanol, n=10, listed as vitamin E) it was 2.7 mM.
